Data from US10981926B2 (Janssen Pharmaceutica NV, priority 2016, dated 2021).
Read-outs that look alike come from different tables or passages of the source.

Experiments:
Type in all cases: cell-based
[1] = biological target: T1, wild-type Androgen Receptor (AR-wt) (Homo sapiens (Human), UniProt P10275); experiment: LNCaP-AR-wt ANT reporter assay (antagonist mode); settings: for Emax: read-out: LNCaP-AR-wt ANT MAX % Inh
[2] = biological target: T1, wild-type Androgen Receptor (AR-wt); experiment: LNCaP-AR-wt AG reporter assay (agonist mode); settings: for Emax: read-out: LNCaP-AR-wt AG MAX % Stim
[3] = biological target: T2, F876L mutant Androgen Receptor (AR-F876L) (Homo sapiens (Human), UniProt P10275, F877L); experiment: LNCaP-AR-F876L ANT reporter assay (antagonist mode); settings: for Emax: read-out: LNCaP-AR-F876L ANT MAX % Inh
[4] = biological target: T2, F876L mutant Androgen Receptor (AR-F876L); experiment: LNCaP-AR-F876L AG reporter assay (agonist mode); settings: for Emax: read-out: LNCaP-AR-F876L AG MAX % Stim
[5] = antagonist mode, maximum % inhibition of R1881 control response over tested concentration range
[6] = antagonist mode, pIC50 = −Log10(IC50 in Molar), read-out: LNCaP-AR-wt ANT pIC50 (converted)
[7] = agonist mode, maximum % stimulation over tested concentration range
[8] = agonist mode, pEC50 = −Log10(EC50 in Molar), read-out: LNCaP-AR-wt AG pEC50 (converted)
[9] = antagonist mode, pIC50 = −Log10(IC50 in Molar), read-out: LNCaP-AR-F876L ANT pIC50 (converted)
[10] = agonist mode, pEC50 = −Log10(EC50 in Molar), read-out: LNCaP-AR-F876L AG pEC50 (converted)

T1 sequence (P10275 whole entry): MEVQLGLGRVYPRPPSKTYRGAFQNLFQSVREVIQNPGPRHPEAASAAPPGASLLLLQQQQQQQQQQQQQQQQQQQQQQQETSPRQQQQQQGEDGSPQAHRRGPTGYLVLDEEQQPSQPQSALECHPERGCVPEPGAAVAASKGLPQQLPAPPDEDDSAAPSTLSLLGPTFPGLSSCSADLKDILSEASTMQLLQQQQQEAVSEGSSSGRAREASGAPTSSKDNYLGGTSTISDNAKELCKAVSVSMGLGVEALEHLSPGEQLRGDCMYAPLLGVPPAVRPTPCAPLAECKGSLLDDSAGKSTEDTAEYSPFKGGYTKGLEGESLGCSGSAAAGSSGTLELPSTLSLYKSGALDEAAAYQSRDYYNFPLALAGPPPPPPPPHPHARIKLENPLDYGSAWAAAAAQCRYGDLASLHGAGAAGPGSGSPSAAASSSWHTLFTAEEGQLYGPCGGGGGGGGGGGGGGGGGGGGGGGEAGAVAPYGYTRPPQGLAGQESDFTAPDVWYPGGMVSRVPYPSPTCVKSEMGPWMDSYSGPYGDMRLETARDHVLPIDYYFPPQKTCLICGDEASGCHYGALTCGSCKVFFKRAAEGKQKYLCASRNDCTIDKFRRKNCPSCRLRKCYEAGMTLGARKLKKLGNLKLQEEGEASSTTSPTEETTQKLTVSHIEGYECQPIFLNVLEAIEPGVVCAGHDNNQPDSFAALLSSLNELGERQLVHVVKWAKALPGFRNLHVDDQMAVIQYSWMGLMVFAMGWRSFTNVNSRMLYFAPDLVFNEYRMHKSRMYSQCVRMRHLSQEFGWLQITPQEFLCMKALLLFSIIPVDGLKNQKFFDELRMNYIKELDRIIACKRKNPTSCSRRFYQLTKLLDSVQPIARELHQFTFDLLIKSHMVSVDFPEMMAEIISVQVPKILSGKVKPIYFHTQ
T2 sequence (P10275 whole entry F877L): as the sequence (P10275 whole entry) above, with F877L counted along it

Emax [1, 5] [%] | IC50 [1, 6] [nM] | Emax [2, 7] [%] | EC50 [2, 8] [nM] | Emax [3, 5] [%] | IC50 [3, 9] [nM] | Emax [4, 7] [%] | EC50 [4, 10] [nM] | SMILES | IC50 ([1]; LNCaP-AR-wt ANT pIC50) [nM] | Emax [1] [%] | EC50 [2] [nM] | Emax [2] [%] | IC50 ([3]; LNCaP-AR-F876L ANT pIC50) [nM] | Emax [3] [%] | EC50 [4] [nM] | Emax [4] [%]
102 | 708 | 0.2 | > 15100 | 102 | 427 | 0.8 | > 15100 | CN1CCC[C@@H](CNC(=O)c2ccc(N3C(=S)N(c4cnc(C#N)c(C(F)(F)F)c4)C(=O)C34CCC4)cc2)C1 [Cpd 185, 4-[6-[6-cyano-5-(trifluoromethyl)-3-pyridyl]-5-oxo-7-thioxo-6,8-diazaspiro[3.4]octan-8-yl]-N-[[(3S)-1-methyl-3-piperidyl]methyl]benzamide] |  |  |  |  |  |  |  | 
99.8 | 3160 | 0.1 | > 15100 | 100 | 2240 | 0 | > 15100 | N#Cc1ncc(N2C(=O)C3(CCC3)N(c3ccc(C(=O)NC[C@@H]4CCCNC4)cc3)C2=S)cc1C(F)(F)F [Cpd 186, 4-[6-[6-cyano-5-(trifluoromethyl)-3-pyridyl]-5-oxo-7-thioxo-6,8-diazaspiro[3.4]octan-8-yl]-N-[[(3R)-3-piperidyl]methyl]benzamide] |  |  |  |  |  |  |  | 
101 | 1260 | 0.3 | > 15100 | 101 | 513 | 0.2 | > 15100 | CN1CC[C@@H](CNC(=O)c2ccc(N3C(=S)N(c4cnc(C#N)c(C(F)(F)F)c4)C(=O)C34CCC4)cc2)C1 [Cpd 187, 4-[6-[6-cyano-5-(trifluoromethyl)-3-pyridyl]-5-oxo-7-thioxo-6,8-diazaspiro[3.4]octan-8-yl]-N-[[(3S)-1-methylpyrrolidin-3-yl]methyl]benzamide] |  |  |  |  |  |  |  | 
95.3 | 3020 | -0.1 | > 15100 | 97.4 | 1660 | 0.1 | > 15100 | C[N@+]1([O-])CC[C@H](Oc2ccc(N3C(=S)N(c4cnc(C#N)c(C(F)(F)F)c4)C(=O)C34CCC4)cc2)CC1 [Cpd 190, 5-[8-[4-(1-methyl-1-oxido-piperidin-1-ium-4-yl)oxyphenyl]-5-oxo-7-thioxo-6,8-diazaspiro[3.4]octan-6-yl]-3-(trifluoromethyl)pyridine-2-carbonitrile] |  |  |  |  |  |  |  | 
101 | 1580 | 0 | > 15100 | 102 | 692 | 0.1 | > 15100 | CN1CCC(NC(=O)c2ccc(N3C(=S)N(c4cnc(C#N)c(C(F)(F)F)c4)C(=O)C34CCC4)cc2)C1 (centres unmarked) [Cpd 192, 4-[6-[6-cyano-5-(trifluoromethyl)-3-pyridyl]-5-oxo-7-thioxo-6,8-diazaspiro[3.4]octan-8-yl]-N-(1-methylpyrrolidin-3-yl)benzamide] |  |  |  |  |  |  |  | 
101 | 229 | 0.1 | > 15100 | 101 | 191 | 0.4 | > 15100 | CN1CCC12CC(Oc1ccc(N3C(=S)N(c4cnc(C#N)c(C(F)(F)F)c4)C(=O)C34CCC4)cn1)C2 (centres unmarked) [Cpd 193, 5-[8-[6-[(3-methyl-3-azaspiro[3.3]heptan-6-yl)oxy]-3-pyridyl]-5-oxo-7-thioxo-6,8-diazaspiro[3.4]octan-6-yl]-3-(trifluoromethyl)pyridine-2-carbonitrile] |  |  |  |  |  |  |  | 
100 | 589 | -0.2 | > 15100 | 99.9 | 437 | 0.2 | > 15100 | CN(C(=O)OC(C)(C)C)C1(COc2ccc(N3C(=S)N(c4cnc(C#N)c(C(F)(F)F)c4)C(=O)C34CCC4)cc2)COC1 [Cpd 196, tert-butyl N-[3-[[4-[6-[6-cyano-5-(trifluoromethyl)-3-pyridyl]-5-oxo-7-thioxo-6,8-diazaspiro[3.4]octan-8-yl]phenoxy]methyl]oxetan-3-yl]-N-methyl-carbamate] |  |  |  |  |  |  |  | 
 |  |  |  |  |  |  |  | CN(C)C1(c2ccc(N3C(=S)N(c4cnc(C#N)c(C(F)(F)F)c4)C(=O)C34CCC4)cc2)COC1 [Cpd 197, 5-(5-(4-(3-(dimethylamino)oxetan-3-yl)phenyl)-8-oxo-6-thioxo-5,7-diazaspiro[3.4]octan-7-yl)-3-(trifluoromethyl)picolinonitrile] | 1070 | 99.3 | > 15100 | 0.1 | 447 | 101 | > 15100 | 0.3
102 | 562 | 0.1 | > 15100 | 102 | 562 | 0.1 | > 15100 | CC(=O)N1CCC(n2cc3ccc(N4C(=S)N(c5cnc(C#N)c(C(F)(F)F)c5)C(=O)C45CCC5)cc3n2)CC1 [Cpd 198, 5-[8-[2-(1-acetyl-4-piperidyl)indazol-6-yl]-5-oxo-7-thioxo-6,8-diazaspiro[3.4]octan-6-yl]-3-(trifluoromethyl)pyridine-2-carbonitrile] |  |  |  |  |  |  |  | 
88.9 | 1620 | -0.2 | > 15100 | 102 | 1510 | 0.9 | > 15100 | CN1CCC(n2cc3ccc(N4C(=S)N(c5cnc(C#N)c(C(F)(F)F)c5)C(=O)C45CCC5)cc3n2)CC1 [Cpd 199, 5-[8-[2-(1-methyl-4-piperidyl)indazol-6-yl]-5-oxo-7-thioxo-6,8-diazaspiro[3.4]octan-6-yl]-3-(trifluoromethyl)pyridine-2-carbonitrile] |  |  |  |  |  |  |  | 
99.6 | 708 | 0.4 | > 15100 | 99.1 | 794 | 0.5 | > 15100 | CN1CCC[C@@H](CNC(=O)c2ccc(N3C(=S)N(c4cnc(C#N)c(C(F)(F)F)c4)C(=O)C34CCC4)cc2F)C1 [Cpd 200, 4-[6-[6-cyano-5-(trifluoromethyl)-3-pyridyl]-5-oxo-7-thioxo-6,8-diazaspiro[3.4]octan-8-yl]-2-fluoro-N-[[(3S)-1-methyl-3-piperidyl]methyl]benzamide] |  |  |  |  |  |  |  | 
101 | 355 | -0.3 | > 15100 | 101 | 214 | 0 | > 15100 | CN1CCC(CNC(=O)c2ccc(N3C(=S)N(c4cnc(C#N)c(C(F)(F)F)c4)C(=O)C34CCC4)cc2F)CC1 [Cpd 201, 4-[6-[6-cyano-5-(trifluoromethyl)-3-pyridyl]-5-oxo-7-thioxo-6,8-diazaspiro[3.4]octan-8-yl]-2-fluoro-N-[(1-methyl-4-piperidyl)methyl]benzamide] |  |  |  |  |  |  |  | 
102 | 1100 | -0.1 | > 15100 | 101 | 603 | 0 | > 15100 | N#Cc1ncc(N2C(=O)C3(CCC3)N(c3ccc(C(=O)NC[C@@H]4CCCNC4)c(F)c3)C2=S)cc1C(F)(F)F [Cpd 202, 4-[6-[6-cyano-5-(trifluoromethyl)-3-pyridyl]-5-oxo-7-thioxo-6,8-diazaspiro[3.4]octan-8-yl]-2-fluoro-N-[[(3R)-3-piperidyl]methyl]benzamide] |  |  |  |  |  |  |  | 
102 | 891 | -0.1 | > 15100 | 100 | 562 | 0 | > 15100 | CN1CCC[C@H](CNC(=O)c2ccc(N3C(=S)N(c4cnc(C#N)c(C(F)(F)F)c4)C(=O)C34CCC4)cc2F)C1 [Cpd 203, 4-[6-[6-cyano-5-(trifluoromethyl)-3-pyridyl]-5-oxo-7-thioxo-6,8-diazaspiro[3.4]octan-8-yl]-2-fluoro-N-[[(3R)-1-methyl-3-piperidyl]methyl]benzamide] |  |  |  |  |  |  |  | 
102 | 2450 | 0.1 | > 15100 | 99.7 | 1950 | 0 | > 15100 | N#Cc1ncc(N2C(=O)C3(CCC3)N(c3ccc(C(=O)NC[C@H]4CCCNC4)c(F)c3)C2=S)cc1C(F)(F)F [Cpd 204, 4-[6-[6-cyano-5-(trifluoromethyl)-3-pyridyl]-5-oxo-7-thioxo-6,8-diazaspiro[3.4]octan-8-yl]-2-fluoro-N-[[(3S)-3-piperidyl]methyl]benzamide] |  |  |  |  |  |  |  | 
101 | 1100 | -0.1 | > 15100 | 100 | 708 | 0.1 | > 15100 | CN1CC[C@@H](CNC(=O)c2ccc(N3C(=S)N(c4cnc(C#N)c(C(F)(F)F)c4)C(=O)C34CCC4)cc2F)C1 [Cpd 205, 4-[6-[6-cyano-5-(trifluoromethyl)-3-pyridyl]-5-oxo-7-thioxo-6,8-diazaspiro[3.4]octan-8-yl]-2-fluoro-N-[[(3S)-1-methylpyrrolidin-3-yl]methyl]benzamide] |  |  |  |  |  |  |  | 
